In patent US5798387A, “Amino acid derivatives” (Zaidan Hojin Biseibutsu Kagaku Kenkyu Kai, priority 1992, dated 1998):

Columns and labels:
[1] = test system: T cells; test: T cell proliferation (Test 1), thymidine uptake of Concanavalin A-treated T cells; format: cell-based, rat (female Fisher 344); conditions: Rattus norvegicus, 72 h, 3 days, untreated cells = 100, read-out: Rate of stimulating proliferation of T cells; for activity at 0.1 µg/mL: concentration of compound 0.1 μg/ml; for activity at 1 µg/mL: concentration of compound 1 μg/ml; for activity at 10 µg/mL: concentration of compound 10 μg/ml
From the text: Effects of the novel amino acid derivatives of the general formula (I) on the proliferation of T cells were investigated by the following procedure.
The spleens, which had been excised in sterility from female Fisher 344 rats (12-16 weeks old, purchased from CHARLES RIVER JAPAN, INC), were squeezed in RPMI 1640 medium (a product of NISSUI PHARMACEUTICAL CO., LTD.) supplemented with 10% of fetal bovine serum, followed by passage of the resulting cell suspension through a column containing nylon wool fibres, whereby a cell suspension containing an abundant amount of T cells was obtained. This cell suspension was diluted to a level of 1×10^6 cells/ml with addition of a medium of the same composition as above. The cell-containing medium so obtained was then added with 5 μg/ml of Concanavalin A (product of Pharmacia AB), followed by incubation at 37° C. for 4 hours. Four hours later, α-methylmannoside was added to the incubated medium to give a concentration of 20 mg/ml of α-methylmannoside. After stirring the medium, cells were separated and collected therefrom by centrifugation. The collected cells were suspended at a level of 3×10^6 cells/ml in a medium of the same composition as above, followed by placing the resulting cell suspension in 100 μl portions in a 96-well microplate.
Novel amino acid derivatives at various concentrations, which are shown in Table 4, were incorporated in an amount of 100 μl as the test compounds to the respective cell suspensions in the plate, followed by incubation at 37° C. for 3 days in an incubator under air atmosphere containing 5% of carbon dioxide. Meanwhile, eighteen hours before the completion of the incubation, a solution of 10μ Ci/ml of radioactively labeled thymidine (Thymidine "6-^3 H", a product of NEN Company) was added in an amount of 10 μl to the cell suspensions under incubation. The cells after the incubation were collected on a filter paper by means of a cell harvester, washed with water and radioactivity of the cells so treated was determined by a liquid scintillation counter. The determined values of the radioactivity of the cells as treated with the test compounds were evaluated on the assumption that the determined value of the radioactivity of the cells untreated, namely tested without addition of the test compound during the incubation of cells was amounting to 100. The so evaluated values are recorded and expressed as rates (%) for stimulating the T cell proliferation which show such extent that the proliferation of T cells is enhanced by the new amino acid derivative of this invention.

[2] = test system: bone-marrow cells (hematopoietic stem cells; megakaryocytes); test: Formation of colonies of megakaryocytes from bone-marrow cells (Test 3); format: cell-based, mouse (male BALB/c); conditions: Mus musculus, Bone marrow cell, 168 h, 7 days, no addition = 100, read-out: Number of colonies of megakaryocytes; for activity at 50 µg/mL: concentration of test compound 50 μg/ml; for activity at 5 µg/mL: concentration of test compound 5 μg/ml
Procedure: The activity of some amino acid derivatives of the general formula (I) according to this invention which induces proliferation of hematopoietic stem cells was tested in the following manner. Thus, bone-marrow cells had been prepared from the femurs of male BALB/c mouse (6-7 weeks old), and then a suspension of the bone-marrow cells was overlayed on "Lympholite M" (product of Cefalane Company), followed by centrifugation under 1500 g for 20 minutes. A lymphocyte fraction was collected, washed three times with "alpha MEM medium" (product of Gibco Company), and then diluted and suspended in the same medium as above to give a lymphocyte concentration of 7×10^6 cells/ml.
[…] of the resulting cell suspension, 50 μl of a solution of a test compound in physiological saline, 50 μl of a culture supernatant of WEHI-3, 100 μl of phosphate-buffered physiological saline, 50 μl of a pre-deionized 10% bovine serum albumin solution, 50 μl of an L-asparagin solution (200 μg/ml), 50 μl of a calcium chloride solution (260 μg/ml) and 50 μl of bovine plasma containing sodium citrate were combined together. The liquid mixture so obtained was poured in portions of 50 μl/well on a slide glass ("Glass Ware", product of Flaw Laboratory Company). After coagulation of the mixture, the slide glass bearing the coagulated masses was immersed in 10% FBS-added alpha MEM medium, followed by incubation at 37° C. under 5% CO2 for 7 days.
After completion of the incubation, the cells on the slide glass were immobilized with a 25% glutaraldehyde solution. In accordance with the methods proposed by Nagasawa et al. ["Zoketsu Kan Saibo (Hematopoietic Stem Cells)" compiled by takahisa Shimamaro, page 128 (The Nishimura Shoten Co., Ltd.)], the immobilized cells were stained for acetylcholinesterase activity which is specific for mouse megakaryocytes, and also the cells were stained with Mayer hematoxylin. Each cell culture so stained was dried and then sealed with a sealing agent. Under a microscope of ×100 magnification, the number of megakaryocytic colonies (i.e., the number of cells stained in an orange color) per well was counted.

[3] = test system: Ehrlich ascites carcinoma; test: Antitumor activity (Test 2), Ehrlich ascites carcinoma transplanted subcutaneously; format: in vivo, mouse (ICR); conditions: tumor weight on day 15 vs control
Procedure: The antitumor activity of some amino acid derivatives of the general formula (I) according to this invention was tested in the following manner. A suspension of Ehrlich ascites carcinoma cells was subcutaneously injected to one of the inguinal parts of each ICR mouse to transplant 4×10^6 cells/mouse. From the seventh day after the transplantation, a test compound was intraperitoneally injected daily for 7 days at a dose of 50, 5 or 0.5 mg/kg (4 mice per treated group of mice, but 8 mice per untreated control group of mice). On the fifteenth day after the transplantation, a solid cancer was cut out and weighed. A reduction in the weight of solid cancers of the mice in each treated group of mice which was evaluated in comparison with the control group is expressed as rate of inhibiting the tumor growth (%) in Table 5 below.

Row | Compound | activity at 0.1 µg/mL [1] [%] | activity at 1 µg/mL [1] [%] | activity at 10 µg/mL [1] [%] | activity at 50 µg/mL [2] [%] | activity at 5 µg/mL [2] [%] | Tumor growth inhibiting rate ([3]; 5 mg/kg i.p. daily for 7 days) [%] | Tumor growth inhibiting rate ([3]; 50 mg/kg i.p. daily for 7 days) [%]
1 | CC(C)C(O)C(=O)NC(C)(CO)C(=O)O (centres unmarked) [Compound 7] | 240 | 222 | 323 | 166 | – | – | –
2 | CC(O)C(C)C(O)C(=O)NC(CSCc1ccccc1)C(=O)OCc1ccccc1 (centres unmarked) [Compound 20] | 153 | 227 | 261 | – | 129 | – | –
3 | CCC(C)CC(=O)NC(C)(CO)C(=O)OCc1ccccc1 (centres unmarked) [Compound 2] | 208 | 190 | 275 | – | 122 | – | –
4 | COC(=O)C(CSC)NC(=O)C(O)C(C)C(C)O (centres unmarked) [Compound 18] | 268 | 355 | 427 | – | 146 | – | –
5 | COC(=O)C(C)(CO)NC(=O)C(O)C(C)(C)CO (centres unmarked) [Compound 14] | 356 | 335 | 443 | – | 167 | – | –
6 | CC(NC(=O)C(O)C(C)C(C)O)C(=O)OCc1ccccc1 (centres unmarked) [Compound 22] | – | – | – | – | 108 | – | –
7 | CC(O)CC(=O)NC(C)(COCc1ccccc1)C(=O)OCc1ccccc1 (centres unmarked) [Compound 6] | 142 | 171 | 169 | – | 126 | – | –
8 | CC(C)C(O)C(=O)NC(C)(CO)C(=O)OCc1ccccc1 (centres unmarked) [Compound 8] | 251 | 226 | 372 | – | 111 | – | –
9 | CC(C)C(O)C(C)C(O)C(=O)NC(C)(CO)C(=O)O (centres unmarked) [Compound 16] | 200 | 239 | 201 | 143 | – | – | –
10 | CC(CC(=O)OCc1ccccc1)NC(=O)C(O)C(C)C(C)O (centres unmarked) [Compound 28] | – | – | – | – | 121 | – | –
11 | CSCC(NC(=O)C(O)C(C)C(C)O)C(=O)OCc1ccccc1 (centres unmarked) [Compound 19] | 289 | 310 | 251 | 156 | – | 12 | –
12 | CC(O)C(NC(=O)C(O)C(C)C(C)O)C(=O)O (centres unmarked) [Compound 23] | – | – | – | – | 144 | – | –
13 | CC(O)C(C)C(O)C(=O)NC(C)(C)C(=O)O (centres unmarked) [Compound 26] | – | – | – | – | 136 | – | –
14 | CC(C)CC(NC(=O)C(O)C(C)C(C)O)C(=O)OCc1ccccc1 (centres unmarked) [Compound 10] | 231 | 201 | 251 | – | 138 | 31 | 58
